Entries after “also recorded” stand apart in the source; their conditions may differ.

In data set [1] the test system is M1 viral proteins (structural protein E1 and non-structural protein NS3). Briefly: Immunoblot of M1 viral proteins after statin treatment of M1-infected HCT-116 cells. Type of data set: cell-based, M1 virus. The conditions noted are these: concentration not given. As to the method: (§1) a) Cell culture: human intestinal cell carcinoma strain HCT-116 was grown in a DMEM complete medium containing 10% FBS, 100 U/ml penicillin and 0.1 mg/ml streptomycin; all cell strains were cultured in a constant temperature closed incubator at 5% CO2, 37° C. (95% RH) and observed by the inverted microscope. Cells were passaged once for approximately 2-3 days and the cells in logarithmic growth phase were used for formal experiments.
Cells were infected with M1 virus (MOI=1), treated with M1 virus (MOI=1) combined with fluvastatin or atorvastatin (1 and 10 μM), and cellular proteins were harvested after 24 hours and immunoblotted.
(In western blotting, separated proteins are transferred to a membrane and probed.)

In data set [2] the test system is HCT-116 cells. Briefly: Cell morphology after fluvastatin and M1 virus treatment. Type of data set: cell-based, human. Particulars: fluvastatin 2 μM, M1 virus MOI=1, 48 hours. As to the method:
as §1
c) Cells were inoculated into a 24-well plate at 30,000 cells/well; after the cells were treated with fluvastatin 2 (μM), they were infected with M1 virus (MOI=1); and the changes of cell morphology were observed under the inverted phase contrast microscope after 48 hours.

In another data set the test system is alphavirus M1. Briefly: Mevalonate pathway inhibiting compounds acting on tumor cells with M1 virus: virus replication. The format is cell-based.
A further data set deals with SW1990 cells. Briefly: MTT cell viability, Tipifarnib and M1 virus. Type of data set: cell-based, human. The conditions noted are these: Tipifarnib 50 nM, M1 virus MOI=1, 48 h. The text has this:
(§2) Each group of experiments was repeated 3 times.

For data set [3], the system named is HCT-116 cells. Kind of data set: MTT cell viability, Tipifarnib and M1 virus. The format is cell-based, human. The conditions noted are these: Tipifarnib 50 nM, M1 virus MOI=1, 48 h.
Source text: as §2

Data set [4] concerns HCT-116 or SW 1990 transplanted tumors. Kind of data set: Growth of subcutaneous transplanted tumors in nude mice. The format is in vivo, BALB/c nude mice. Particulars: Tipifarnib 500 μg/kg/d i.p.; M1 2×10^9 PFU/kg/d tail vein; 6 consecutive injections; vs control group; both tumor models. On the procedure: This experiment used a randomized, single-blind design. 5×10^6 HCT-116 or SW 1990 cells were injected subcutaneously into the dorsal flank of the 4 week old BALB/c nude mouse.
When the tumor size reached 50 mm3, the mice were divided into […], including untreated control group, Tipifarnib alone group (500 μg/kg/d by intraperitoneal injection), M1 infection alone group (2×10^9 PFU/kg/d by tail vein injection of M1 virus) and Tipifarnib/M1 combined group (same dose of Tipifarnib and M1 virus), and treated with 6 consecutive injections. The length, width and weight of the tumor were measured every two days, and the volume of the tumor was measured according to the formula (length×width^2)/2. One way ANOVA was performed after measuring tumor volume, ***indicates p<0.001.

Data set [5] concerns HCT-116, Capan-1 and SW 1990 cells. Kind of data set: Cell morphology under inverted phase contrast microscope after siRNA interference of HMGCR and M1 virus infection. The format is cell-based, human. The conditions noted are these: HCT-116, Capan-1, SW 1990; siRNA 25 nM; M1 virus 1 MOI; 48 h after infection. As to the method:
(§3) The cells were inoculated into a 35 mm culture dish, cultured until the confluence degree of the cells reaches 60% and subjected to the following interference treatment: firstly, a Lipofectamine RNAiMAX solution was prepared with Opti-MEM by diluting according to 2 μL: 198 μL per culture dish and uniformly mixing; secondly, an siRNA solution was prepared with Opti-MEM by diluting according to 1.8 μL: 198 μL per culture dish, wherein the final concentration of siRNA was 25 nM, and mixing gently; finally, the diluted Lipofectamine RNAiMAX and siRNA were mixed, and stood for 15 minutes at room temperature; the mixed solution was added into a culture dish containing 1.5 mL of serum-free culture medium; and the medium was changed to a complete medium after 24 hours, and infected with M1 virus (1MOI). The changes in cell morphology were observed after 48 h under the inverted phase contrast microscope.

In data set [6] the test system is M1 virus structural protein E1 and nonstructural protein NS3. Kind of data set: Immunoblot of M1 viral proteins after siRNA interference of mevalonate pathway genes. Particulars: HCT-116; siRNA HMGCR, SQLE, FNTB, PGGT1B, RABGGTB 25, 25, 4, 20, 20 nM; M1 1 MOI; 24 hours. Type of data set: cell-based. On the procedure: as §3, with “interfering HMGCR, SQLE, FNTB, PGGT 1B and RABGGTB (specifically see FIG. 9 and the description of the Figures) were 25, 25, 4, 20 and 20 nM respectively,” for “was 25 nM,”, “Cell lysates” for “The changes in cell morphology”, “collected” for “observed”, “24 hours and immunoblotted.” for “48 h under the inverted phase contrast microscope.”

On to `CC(C)n1c(/C=C/[C@@H](O)C[C@@H](O)CC(=O)[O-])c(-c2ccc(F)cc2)c2ccccc21.[Na+]` [fluvastatin], for which the “expression of M1 virus protein” value in data set [1] is reported as “significantly increase the protein expression of M1 virus; also recorded: promote the expression of M1 virus protein”. Further, in the data set with HCT-116 cells [2], the “changes of cell morphology” value is on record as “induced lesions in a small number of cells”. The “replication of the alphavirus M1” value in the data set with alphavirus M1 is listed as “promote replication of the alphavirus Ml”.
atorvastatin: in data set [1], the “expression of M1 virus protein” value is given as “significantly increase the protein expression of M1 virus; also recorded: promote the expression of M1 virus protein”. Also, the “replication of the alphavirus M1” value in the data set with alphavirus M1 is recorded as “promote replication of the alphavirus Ml”.
For `Cn1cncc1[C@@](N)(c1ccc(Cl)cc1)c1ccc2c(c1)c(-c1cccc(Cl)c1)cc(=O)n2C` [Tipifarnib], the “replication of the alphavirus M1” value in the data set with alphavirus M1 is “promote replication of the alphavirus Ml”. Besides, the “tumor cell survival rate” value was found to be 90% in the data set on SW1990 cells and 80% in the data set with HCT-116 cells [3]. The tumor volume entry in data set [4] is “only a slight reduction in tumor volume”.
As to `COC(=O)[C@H](CCSC)NC(=O)c1ccc(NC[C@@H](N)CS)cc1-c1ccccc1.O=C(O)C(F)(F)F` [FTI277], the “replication of the alphavirus M1” value in the data set on alphavirus M1 was “promote replication of the alphavirus Ml”.
As to “AACCCAAUGCCCAUGUUCCdTdT (as printed in the source, key not given here) [siRNA targeting HMGCR, siRNA interfering the HMG-CoA reductase gene (HMGCR)]”, in data set [5], the “changes in cell morphology” value was “did not affect the morphology of tumor cells”. Further, the “expression of structural protein E1 and nonstructural protein NS3 of the virus” value in data set [6] is on record as “increased significantly; also recorded: significantly increase the protein expression of M1 virus”.

The record behind these values is patent publication US20200405793A1, “USE OF […] PATHWAY INHIBITOR AND […] PREPARING ANTI-TUMOR DRUG” (GUANGZHOU VIROTECH PHARMACEUTICAL CO., LTD., priority 2017, published 2020).
